According to patent publication US10376552B2, “Memory improving composition comprising arillus longan, semen nelumbinis, poria and semen juglandis” (priority 2015, dated 2019):

Legend:
[1] = clinical use as cholinesterase inhibitor; cited from earlier work
[2] = tested on: scopolamine hydrobromide-induced mice memory acquired disorder model; assay: Morris water maze, space exploration test; format: in vivo; settings: 0.1 mg/kg
Method: (§1) Mice were randomly divided into 5 groups evenly, namely, normal control group, model group, low dosage group, high dosage group, positive control drug Huperzine A group (0.1 mg/kg). The mice were intragastrically administered once daily (0.2 mL/10 g). After 30 consecutive days, except the normal control group, the memory acquired disorder model of mice was replicated respectively with scopolamine, and the learning performance of mice was determined with the Morris water maze test (scopolamine-induced orientation navigation and spatial memory experiment).
(§2) In accordance with technical requirements including “technical specifications of health food inspection and evaluation”, the dosage was calculated by conversion of the intended clinical daily dosage on the basis of the body surface area. When orally administered to mice, low and high dosages were arranged for each sample, respectively, which correspond to about 10 and 20 times of intended daily dosage for adults. Namely: low dosage group (1.3 g/kg), high dosage group (2.6 g/kg).
(§3) As for the positive control drug Huperzine A, the clinical adult dosage is about 0.4 mg/day, and the dosage for mice is 0.06 mg/kg, which is calculated by conversion on the basis of the body surface area. 0.1 mg/kg was used in the present experiment.
(§4) Morris water maze test was carried out according to the method in references. The orientation navigation test was started from the 25th day, and lasted for 4 consecutive days. The time of finding the platform of mice within 90 s (the escape latency), swimming distance, the swimming time proportion in the quadrant of the original platform, times of crossing the location of the original platform (i.e., shuttle times), and the time of first arrival at the original platform were recorded.
(§5) Mice were randomly divided into 5 groups, namely, normal control group, model group, low dosage group (1.3 g/kg), high dosage group (2.6 g/kg), positive control drug Huperzine A group (0.1 mg/kg). The mice were intragastrically administered once daily (0.2 mL/10 g). After 30 consecutive days, except the normal control group, the memory acquired disorder model of mice was replicated respectively with scopolamine, and the learning performance of mice was determined with the Morris water maze test (scopolamine-induced orientation navigation and spatial memory experiment).
(§6) In this example, respective groups of animals were adaptively fed for 3 days before intragastrical administration. The normal control group and model control group were intragastrically administered once daily with equal volume of 0.5% CMCNA, respectively. The administration was carried out with a volume of 0.2 mL/10 g body weight for 30 consecutive days. Morris water maze test was carried out according to the method in literatures. The orientation navigation test was started from the 25th day, and lasted for 4 days. The time of finding the platform of mice within 90 s (the escape latency), swimming distance, the swimming time proportion in the quadrant of the original platform, times of crossing the location of the original platform (i.e., shuttle times), and the time of first arrival at the original platform were recorded.

[3] = tested on: scopolamine memory acquired disorder model of mice; assay: Morris water maze, orientation navigation test; format: in vivo; settings: 0.1 mg/kg
Method: as §1, §2, §3, §4, §5, §6

[4] = tested on: scopolamine hydrobromide induced memory acquired disorder in mice; assay: Step-down test; format: in vivo, Kunming mice; settings: 0.1 mg/kg
Method: as §5, with “group,” for “group (1.3 g/kg),”, “group,” for “group (2.6 g/kg),”, “[…] of scopolamine hydrobromide,” for “scopolamine,”, “step-down test.” for “Morris water maze test (scopolamine-induced orientation navigation and spatial memory experiment).”
as §2
(§7) The time of the first jumping of mice (i.e., latency) and the times of jumping of mice within 5 minutes (i.e., errors times) were tested and recorded with jumping apparatus, and the latency and error times were used as the investigation indexes of the experiment.
60 screened healthy adult Kunming mice were used, with body weight (20-24) g, male, 12 […] in each group. Mice were randomly divided into 5 groups, namely, normal control group (C), model group (M), low dosage group (1.3 g/kg), high dosage (2.6 g/kg), positive control drug Huperzine A group (0.1 mg/kg). Except that the normal control group and model group were intragastrically administered with 0.5% CMCNA (0.2 mL/10 g), other groups were intragastrically administered with corresponding drugs once daily for 30 consecutive days. Training was started 1 h after administration in the morning on day 30. Except the normal control group, the memory acquired disorder model of mice was replicated respectively with 2 mg/kg scopolamine hydrobromide 20 minutes before training. Each group was administered in parallel, and the learning performance of mice was determined by step-down test. […]
(1) adaptive period: the animals were placed on the platform, at that time the electric fence was not energized, the latency of jumping down the platform was recorded, the animals were allowed to freely explore 10 s in the test box after jumping down the platform, and were then returned to the cage; […]
as §7, with “The learning performance was tested after 24 h. The” for “The”

Question: With `C/C=C1\[C@H]2C=C(C)C[C@]1(N)c1ccc(=O)[nH]c1C2` [Huperzine A] as the compound, how does the side-effects after ingestion [1] read?
Answer: Its side-effects after ingestion is “nausea, dizziness, sweating, abdominal pain, and blurred vision”.

Question: What about the Shuttle times [2] of the same compound?
Answer: The Shuttle times was 2.2 ± 0.5.

Question: And the “Time proportion of crossing the original quadrant” value [2]?
Answer: The value was 22.6 ± 7.9%.

Question: What about the “time of first arrival at the platform” value [2] of the same compound?
Answer: The value was 27.0 ± 12.1 s.

Question: And the “time of first arrival at the platform” value ([2]; p<0.05)?
Answer: Its value is “significantly prolonging”.

Question: And the “times of crossing the location of the original platform” value ([2]; p<0.05)?
Answer: The value was “significantly decreased”.

Question: What about the swimming distance ([3]; Day 1) of the same compound?
Answer: The swimming distance was 892.9 ± 226.6 cm.

Question: What about the swimming latency ([3]; Day 1) of the same compound?
Answer: The swimming latency was 68.3 ± 15.6 s.

Question: What about the swimming distance ([3]; Day 2) of the same compound?
Answer: The swimming distance was 747.2 ± 93.5 cm.

Question: And the swimming latency ([3]; Day 2)?
Answer: The swimming latency was 59.1 ± 13.8 s.

Question: And the swimming distance ([3]; Day 3)?
Answer: Its swimming distance is 683.3 ± 112.8 cm.

Question: What about the swimming latency ([3]; Day 3) of the same compound?
Answer: Its swimming latency is 56.3 ± 13.1 s.

Question: And the swimming distance ([3]; Day 4)?
Answer: Its swimming distance is 669.6 ± 128.3 cm.

Question: And the swimming latency ([3]; Day 4)?
Answer: The swimming latency was 48.8 ± 11.1 s.

Question: And the Latency [4]?
Answer: The Latency was 146.20 ± 99.97 s.

Question: And the “error times compared with the model group” value ([4]; p<0.05)?
Answer: The value was “significantly reduced”.

Question: And the “latency compared with the model group” value ([4]; p<0.05)?
Answer: Its value is “significantly prolonged”.

Question: And the Error times ([4]; within 5 minutes)?
Answer: The Error times was 1.00 ± 0.82.
